In this experiment the target is T1, PTP-1B (Homo sapiens, UniProt P18031).
T1 construct: PTP-1B (purified, 1 mg/mL) as a 1:250 dilution
T1 sequence (P18031 1-321 limits assumed): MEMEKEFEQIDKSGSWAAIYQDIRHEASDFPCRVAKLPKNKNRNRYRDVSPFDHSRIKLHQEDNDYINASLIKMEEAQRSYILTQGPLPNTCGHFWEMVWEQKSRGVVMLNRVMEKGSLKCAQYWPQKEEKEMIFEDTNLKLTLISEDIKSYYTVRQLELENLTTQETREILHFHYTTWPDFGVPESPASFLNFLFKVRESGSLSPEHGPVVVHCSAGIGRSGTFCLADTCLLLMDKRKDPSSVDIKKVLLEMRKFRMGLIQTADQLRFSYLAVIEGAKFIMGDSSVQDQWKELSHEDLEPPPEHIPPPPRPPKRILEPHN
The experiment is described as follows: pNPP tyrosine phosphatase inhibition assay, PTP-1B. In kind it is biochemical. Conditions: pNPP assay, PTP-1B; read-out: Activity Class (IC50 ranges). In a few lines: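 Test compounds were screened at two final levels, 31.3 and 10 µM, against 4 µg/mL purified PTP-1B. The substrate was 10 mM p-nitrophenyl phosphate, with incubation for 10 min at 30°C before a K2CO3 quench. Activity was taken from A405.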

By IC50 is commonly meant the concentration that gives 50% inhibition.

SMILES strings stand for the structures.

Take `COc1ccccc1S(=O)(=O)N(Cc1ccc(C(F)(F)P(=O)(O)O)c(Cl)c1)Cc1ccccc1C` [Compound 167, [(2-Chloro-4-{[(2-methoxy-benzenesulfonyl)-(2-methyl-benzyl)-amino]-methyl}-phenyl)-difluoro-methyl]-phosphonic acid]: the IC50 fell in the range of 250 to 499 nM.

As for `COc1ccccc1S(=O)(=O)N(Cc1ccc(C(F)(F)P(=O)(O)O)c(Cl)c1)Cc1ccccc1-c1ccccc1` [Compound 168, [(4-{[Biphenyl-2-ylmethyl-(2-methoxy-benzenesulfonyl)-amino]-methyl}-2-chloro-phenyl)-difluoro-methyl]-phosphonic acid], the IC50 lay within 100 to 249 nM.

Take `O=P(O)(O)C(F)(F)c1ccc(CN(Cc2ccc(-c3cccc(-c4nn[nH]n4)c3)cc2)S(=O)(=O)c2ccc(F)cc2Cl)cc1Cl` [Compound 169, {[2-Chloro-4-({(2-chloro-4-fluoro-benzenesulfonyl)-[3′-(2H-tetrazol-5-yl)-biphenyl-4-ylmethyl]-amino}-methyl)-phenyl]-difluoro-methyl}-phosphonic acid]: the IC50 was below 99 nM.

Consider `COc1ccccc1S(=O)(=O)N(Cc1ccccc1)Cc1ccc(C(F)(F)P(=O)(O)O)c(Cl)c1` [Compound 170, [(4-{[Benzyl-(2-methoxy-benzenesulfonyl)-amino]-methyl}-2-chloro-phenyl)-difluoro-methyl]-phosphonic acid], for which the IC50 was in the range of 250 to 499 nM.

As to `COc1ccccc1S(=O)(=O)N(Cc1ccc(C(F)(F)P(=O)(O)O)c(Cl)c1)C(Cc1ccccc1)c1ccccc1` (centres unmarked) [Compound 171, [(2-Chloro-4-{[(1,2-diphenyl-ethyl)-(2-methoxy-benzenesulfonyl)-amino]-methyl}-phenyl)-difluoro-methyl]-phosphonic acid], the IC50 is 2500 to 25000 nM.

For the compound `COc1ccccc1S(=O)(=O)N(Cc1ccc(OCc2ccccc2)cc1)Cc1ccc(C(F)(F)P(=O)(O)O)c(Cl)c1` [Compound 172, [(4-{[(4-Benzyloxy-benzyl)-(2-methoxy-benzenesulfonyl)-amino]-methyl}-2-chloro-phenyl)-difluoro-methyl]-phosphonic acid], the IC50 was 250 to 499 nM.

As to `COc1ccccc1S(=O)(=O)N(Cc1ccc(C(F)(F)P(=O)(O)O)c(Cl)c1)Cc1ccccc1Oc1ccccc1` [Compound 173, [(2-Chloro-4-{[(2-methoxy-benzenesulfonyl)-(2-phenoxy-benzyl)-amino]-methyl}-phenyl)-difluoro-methyl]-phosphonic acid], the IC50 lay within 100 to 249 nM.

As for `COC(=O)c1ccc(-c2ccc(CN(Cc3ccc(C(F)(F)P(=O)(O)O)c(Cl)c3)S(=O)(=O)c3ccccc3OC)cc2)cc1F` [Compound 174, 4′-{[[3-Chloro-4-(difluoro-phosphono-methyl)-benzyl]-(2-methoxy-benzenesulfonyl)-amino]-methyl}-3-fluoro-biphenyl-4-carboxylic acid methyl ester], the IC50 is 100 to 249 nM.

Consider `CCOC(=O)c1cc(-c2ccc(CN(Cc3ccc(C(F)(F)P(=O)(O)O)c(Cl)c3)S(=O)(=O)c3ccccc3OC)cc2)ccc1Cl` [Compound 175, 4-Chloro-4′-{[[3-chloro-4-(difluoro-phosphono-methyl)-benzyl]-(2-methoxy-benzenesulfonyl)-amino]-methyl}-biphenyl-3-carboxylic acid ethyl ester], for which the half-inhibitory concentration (IC50) is 250 to 499 nM.

Regarding `COc1ccccc1S(=O)(=O)N(Cc1ccc(-c2ccc(Cl)c(C(=O)O)c2)cc1)Cc1ccc(C(F)(F)P(=O)(O)O)c(Cl)c1` [Compound 176, 4-Chloro-4′-{[[3-chloro-4-(difluoro-phosphono-methyl)-benzyl]-(2-methoxy-benzenesulfonyl)-amino]-methyl}-biphenyl-3-carboxylic acid], the IC50 was below 99 nM.

Turning to `COc1ccccc1S(=O)(=O)N(Cc1ccc(-c2ccc(C(=O)O)c(F)c2)cc1)Cc1ccc(C(F)(F)P(=O)(O)O)c(Cl)c1` [Compound 177, 4′-{[[3-Chloro-4-(difluoro-phosphono-methyl)-benzyl]-(2-methoxy-benzenesulfonyl)-amino]-methyl}-3-fluoro-biphenyl-4-carboxylic acid], the IC50 was below 99 nM.

(Values after patent US20060135773A1, “Trisubstituted nitrogen modulators of tyrosine phosphatases” (priority 2004, published 2006).)
